Molecules are shown by their SMILES. In brackets after ≈: the same amount, converted by molar mass.

What all share (assay type): functional
The subject of assay [1] is Shewanella putrefaciens. Briefly: Antimicrobial activity against Shewanella putrefaciens Sp31 harboring intI1 and beta-lactamase OXA-48 like genes by CLSI method.
In assay [2] the test system is Shewanella algae. In words: Antimicrobial activity against Shewanella algae Sa82 harboring intI1, intI2, sul1 and sul2 genes by CLSI method.
Assay [3] deals with Shewanella algae. In words: Antimicrobial activity against Shewanella algae Sa392 harboring intI1, intI2, sul1 and sul2 genes by CLSI method.
Assay [4] deals with Shewanella algae. In words: Antimicrobial activity against Shewanella algae Sa78 harboring sul2 gene by CLSI method.
Assay [5] relates to Shewanella algae. In words: Antimicrobial activity against Shewanella algae Sa10 harboring intI1, intI2, sul1 and sul2 genes by CLSI method.
Assay [6] deals with Shewanella putrefaciens. In words: Antimicrobial activity against Shewanella putrefaciens Sp117 harboring intI1,sul1,sul2 and beta-lactamase OXA-48 like genes by CLSI method.
Assay [7] deals with Shewanella algae. Briefly: Antimicrobial activity against Shewanella algae Sa9 harboring intI1, intI2, sul1 and sul2 genes by CLSI method.
Assay [8] relates to Shewanella putrefaciens. Briefly: Antimicrobial activity against Shewanella putrefaciens Sp95 harboring intI1,sul1,sul2 and beta-lactamase OXA-48 like genes by CLSI method.
For assay [9], the system named is Shewanella algae. In words: Antimicrobial activity against Shewanella algae Sa74 harboring intI1, intI2, sul1 and sul2 genes by CLSI method.
Assay [10] has as its system Shewanella algae. Briefly: Antimicrobial activity against Shewanella algae Sa2 harboring intI1, intI2 and sul1 genes by CLSI method.

In general, MIC refers to the smallest concentration in the dilution series that meets the test's criterion for growth inhibition. Low values mean a more susceptible organism, high ones a less susceptible organism. As to `C[C@@H](O)[C@H]1C(=O)N2C(C(=O)O)=C(SCCNC=N)C[C@H]12` [IMIPENEM ANHYDROUS], the minimal inhibitory concentration (MIC) against Shewanella putrefaciens [1] is 0.25 µg/mL (≈ 0.835 µM); against Shewanella algae [2] it was 0.25 µg/mL (≈ 0.835 µM); with Shewanella algae [3], 4 µg/mL (≈ 13.4 µM); with Shewanella algae [4], 4 µg/mL (≈ 13.4 µM); in the assay with Shewanella algae [5], 8 µg/mL (≈ 26.7 µM); against Shewanella putrefaciens [6] it was 1 µg/mL (≈ 3.34 µM). In addition, the MIC against Shewanella algae [7] turned out to be 2 µg/mL (≈ 6.68 µM); in the assay on Shewanella putrefaciens [8] it was 0.5 µg/mL (≈ 1.67 µM); in the assay on Shewanella algae [9], 4 µg/mL (≈ 13.4 µM); in the assay on Shewanella algae [10], 0.25 µg/mL (≈ 0.835 µM).
For the compound `C[C@@H](O)[C@H]1C(=O)N2C(C(=O)O)=C(S[C@@H]3CN[C@H](C(=O)N(C)C)C3)[C@H](C)[C@H]12` [MEROPENEM], the MIC in the assay with Shewanella putrefaciens [1] is 0.125 µg/mL (≈ 0.326 µM); against Shewanella algae [2], 0.38 µg/mL (≈ 0.991 µM); in the assay with Shewanella algae [3] it was 1 µg/mL (≈ 2.61 µM); in the assay on Shewanella algae [4], 0.25 µg/mL (≈ 0.652 µM); in the assay with Shewanella algae [5], 1 µg/mL (≈ 2.61 µM); with Shewanella putrefaciens [6] it was 4 µg/mL (≈ 10.4 µM). The minimal inhibitory concentration (MIC) against Shewanella algae [7] was 0.125 µg/mL (≈ 0.326 µM); with Shewanella putrefaciens [8], 0.25 µg/mL (≈ 0.652 µM); in the assay on Shewanella algae [9], 0.0094 µg/mL (≈ 0.0245 µM); against Shewanella algae [10], 0.032 µg/mL (≈ 0.0834 µM).

For the origin of these results see ChEMBL document CHEMBL1671739, “Reservoir of antimicrobial resistance determinants associated with horizontal gene transfer in clinical isolates of the genus Shewanella” (2010).
